This is an account of results in patent publication US20030194784A1, “DNA encoding methymycin and pikromycin” (priority 2001, published 2003).

For series [1], the target named is A. eutrophus PHA synthase (Cupriavidus necator, UniProt P23608). As to conditions: read-out: apparent Km value (substrate concentration at half-optimal velocity); enzyme concentration constant at 0.95 mg/ml; 40 or 200 μl assay volumes; estimated from FIG. 10.
The subject of the next series is Streptococcus pyogenes. The series can be described thus: Antibiotic activity by filter paper disc on agar plates. It is filed as cell-based. As to conditions: for inhibition zone around disc (antibiotic activity against Streptococcus pyogenes): 20 μL of 1.6 mM sample in MeOH on sterilized filter paper disc, Mueller-Hinton agar plates, overnight at 37° C.; for activity against Streptococcus pyogenes: purified compounds, S. pyogenes grown on Mueller-Hinton agar plates. How it is done: The antibiotic activity of a compound of formula (13) and (14) against Streptococcus pyogenes was examined by separately applying 20 μL of each sample (1.6 mM in MeOH) to sterilized filter paper discs which were placed onto the surface of S. pyogenes grown on Mueller-Hinton agar plates (Mangahas, 1996).

Series [2] deals with the molecule itself. The series can be described thus: size exclusion chromatography, native MW (about 100-160 kDa and about 50-80 kDa forms).
Series [3] in a line: Storage stability of purified PHA synthase (activity remaining). It counts as physicochemical. From the text:
PHA synthase purified from insect cells appears to be relatively stable.

As for 3-hydroxybutyrate CoA [HBCoA], the Km in series [1] is 2500 µM.
As for `CC[C@H]1OC(=O)[C@H](C)[C@@H](O[C@@H]2O[C@H](C)C[C@H](N(C)C)[C@H]2O)[C@@H](C)C[C@@H](C)C(=O)/C=C/[C@]1(C)O` [compound of formula (1), methymycin], in the series on Streptococcus pyogenes, the “inhibition zone around disc (antibiotic activity against Streptococcus pyogenes)” value (“inhibition zone around disc” below) was “clearly visible inhibition zones” and the “activity against Streptococcus pyogenes” value is given as “clearly visible inhibition zones”.
With `C[C@@H]1C[C@H](N(C)C)[C@@H](O)[C@H](O[C@H]2[C@@H](C)C[C@@H](C)C(=O)/C=C/[C@@H](C)[C@@H]([C@@H](C)O)OC(=O)[C@@H]2C)O1` [compound of formula (2), neomethymycin], in the series with Streptococcus pyogenes, the “inhibition zone around disc” value is reported as “clearly visible inhibition zones” and the “activity against Streptococcus pyogenes” value is listed as “clearly visible inhibition zones”.
As for `CCC1OC(=O)C(C)C(OC2OC(C)CC(N(C)C)C2O[C@@H]2O[C@H](CO)[C@@H](O)[C@H](O)[C@H]2O)C(C)CC(C)C(=O)C=CC1(C)O` (stereo partly drawn) [compound of formula (13), C-2′β-glucosylated methymycin], the “inhibition zone around disc” value in the series with Streptococcus pyogenes is “no such clearings were discernible”.

B1: A. eutrophus PHA synthase (phbC gene product), produced in insect cells with a baculovirus vector (enzyme)
chain: AAASTQEGKSQPFKVTPGPFDPATWLEWSRQWQGTEGNGHAAASGIPGLDALAGVKIAPAQLGDIQQRYMKDFSALWQAMAEGKAEATGPLHDRRFAGDAWRTNLPYRFAAAFYLLNARALTELADAVEADAKTRQRIRFAISQWVDAMSPANFLATNPEAQRLLIESGGESLRAGVRNMMEDLTRGKISQTDESAFEVGRNVAVTEGAVVFENEYFQLLQYKPLTDKVHARPLLMVPPCINKYYILDLQPESSLVRHVVEQGHTVFLVSWRNPDASMAGSTWDDYIEHAAIRAIEVARDISGQDKINVLGFCVGGTIVSTALAVLAARGEHPAASVTLLTTLLDFADTGILDVFVDEGHVQLREATLGGGAGAPCALLRGLELANTFSFLRPNDLVWNYVVDNYLKGNTPVPFDLLFWNGDATNLPGPWYCWYLRHTYLQNELKVPGKLTVCGVPVDLASIDVPTYIYGSREDHIVPWTAAYASTALLANKLRFVLGASGHIAGVINPPAKNKRSHWTNDALPESPQQWLAGAIEHHGSWWPDWTAWLAGQAGAKRAAPANYGNARYRAIEPAPGRYVKAKA
notes: The 64 kDa band; On the blots it was denatured (SDS-PAGE); The N-terminus is heterogeneous (starts at A7 or S10); also called PHB synthase; intact PHB synthase (band a)
For B1, in series [2], the binding result is “binds”. Also, the entries for the “synthase activity remained after storage” value in series [3] (after 7 weeks stored at −20° C. in the presence of 50% glycerol) and in series [3] (after 7 weeks stored in liquid N2) were “approximately 75%” and “approximately 50%”, respectively.
